This is an account of results in patent EP2364976B1, “S1P receptor modulating compounds and use thereof” (EPIX Pharmaceuticals, Inc., priority 2007, dated 2007).

T1 sequence (P21453 whole entry): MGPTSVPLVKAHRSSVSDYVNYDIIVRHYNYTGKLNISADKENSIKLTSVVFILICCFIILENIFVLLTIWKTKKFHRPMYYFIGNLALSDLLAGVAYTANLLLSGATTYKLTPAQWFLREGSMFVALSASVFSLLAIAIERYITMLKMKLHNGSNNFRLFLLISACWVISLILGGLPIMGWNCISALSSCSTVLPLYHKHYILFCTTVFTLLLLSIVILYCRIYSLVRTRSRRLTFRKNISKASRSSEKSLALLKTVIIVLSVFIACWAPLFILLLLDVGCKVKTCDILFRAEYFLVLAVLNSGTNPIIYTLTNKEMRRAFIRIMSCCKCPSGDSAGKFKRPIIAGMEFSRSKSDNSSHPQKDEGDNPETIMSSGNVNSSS

This test concerns the target T1, hS1P1 (Homo sapiens, UniProt P21453).
T1 construct: expressed in transfected cells
Nature of the test: hS1P1 EC50 (S1P receptor Ca2+ flux protocol, FLIPR, CHO K1 Gqi5 cells). The conditions noted are these: several values per compound = repeat determinations as printed. It is filed as cell-based. In short, it runs like this: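 Calcium flux (FLIPR) in CHO K1 cells stably expressing Gqi5 and N-terminally V5-tagged human S1P1, loaded with calcium dye 90 min at RT. Peak fluorescence recorded 90 s after compound addition (10-point 3x dilution, 0.25% DMSO), normalized to 200 nM S1P (100%) and buffer (0%); EC50 from 4-parameter fit.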
In general terms: Calcium flux is commonly read through the fluorescence of an indicator in the cells.
One may read the EC50 as the midpoint of the concentration-response curve. Read a high EC50 as a need for much substance. Molecule `O=C(O)C1CN(Cc2ccc(-c3cc4cc(Cc5nccs5)ccc4o3)c(F)c2)C1` [Reference Compound 94, 1-((3-Fluoro-4-(5-(thiazol-2-ylmethyl)benzofuran-2-yl)phenyl)methyl)azetidine-3-carboxylic acid] came in with an EC50 of 76 nM.

The molecule `O=C(O)C1CN(Cc2cccc(-c3cc4cc(Cc5ccccc5)ccc4o3)c2)C1` [Reference Compound 96, 1-(3-(5-Benzylbenzofuran-2-yl)benzyl)azetidine-3-carboxylic acid] displayed a half-maximal effective concentration (EC50) of 4830 nM.

`CC(C)(c1ccccc1)c1ccc2oc(-c3ccc(CN4CC(C(=O)O)C4)cc3F)cc2c1` [Reference Compound 97, 1-((3-Fluoro-4-(5-(2-phenylpropan-2-yl)benzofuran-2-yl)phenyl)methyl)azetidine-3-carboxylic acid] came in with an EC50 of 365 nM.

The molecule `O=C(O)C1CN(Cc2ccc(-c3cc4cc(Cc5ccccc5)ccc4[nH]3)c(F)c2)C1` [Reference Compound 99, 1-((3-Fluoro-4-(5-(phenylmethyl)-1H-indol-2-yl)phenyl)methyl)-3-azetidinecarboxylic acid] gave a concentration for a half-maximal effect (EC50) of 1340 nM.

For the molecule `O=C(O)C1CN(Cc2ccc(-c3cc4cc(Cc5ncccn5)ccc4o3)c(F)c2)C1` [Reference Compound 100], the EC50 amounted to 87 nM.

In the case of `O=C(c1ccccc1)c1ccc2oc(-c3ccc(CN4CC(C(=O)O)C4)cc3F)cc2c1` [Reference Compound 102, 1-((4-(5-Benzoylbenzofuran-2-yl)-3-fluorophenyl)methyl)azetidine-3-carboxylic acid], the EC50 is 80 nM.

In turn, `O=C(O)C1CN(Cc2ccc(-c3cc4cc(Cc5ccccc5)nc(Cl)c4o3)c(F)c2)C1` [Reference Compound 107, 1-((4-(5-Benzyl-7-chlorofuro[2,3-c]pyridin-2-yl)-3-fluorophenyl)methyl)azetidine-3-carboxylic acid] gave an EC50 of 2580 nM.

In turn, `O=C(O)C1CN(Cc2ccc(-c3cc4cc(Cc5ccccc5)ncc4o3)c(F)c2)C1` [Reference Compound 108, 1-((4-(5-Benzylfuro[2,3-c]pyridin-2-yl)-3-fluorophenyl)methyl)azetidine-3-carboxylic acid] yielded an EC50 of 409 nM.

Consider `O=C(O)C1CN(Cc2ccc(-c3cc4nc(Cc5ccccc5)ccc4o3)c(F)c2)C1` [Reference Compound 109, 1-((4-(5-Benzylfuro[3,2-b]pyridin-2-yl)-3-fluorophenyl)methyl)azetidine-3-carboxylic acid], for which the response was half-maximal at 409 nM (EC50).

For `O=C(O)C1CN(Cc2ccc(-c3nc4ccc(Cc5ccccc5)cc4o3)c(F)c2)C1` [Reference Compound 111, 1-((4-(6-Benzylbenzo[d]oxazol-2-yl)-3-fluorophenyl)methyl)azetidine-3-carboxylic acid], the EC50 is 8 nM.

In the case of `O=C(O)C1CN(Cc2ccc(-c3nc4cc(Cc5ccccc5)ccc4o3)c(F)c2)C1` [Reference Compound 112, 1-((4-(5-Benzylbenzo[d]oxazol-2-yl)-3-fluorophenyl)methyl)azetidine-3-carboxylic acid], the EC50 was determined as 19 nM.

`O=C(O)C1CN(Cc2ccc(-c3nc4cc(Cc5ccccc5)ccc4o3)cc2)C1` [Reference Compound 113, 1-((4-(5-Benzylbenzo[d]oxazol-2-yl)phenyl)methyl)azetidine-3-carboxylic acid] gave an EC50 of 364 nM.

In turn, `O=C(O)C1CN(Cc2ccc(-c3nc4ccc(Cc5ccccc5)cc4[nH]3)c(F)c2)C1` [Reference Compound 115, 1-((4-(5-Benzyl-1H-benzo[d]imidazol-2-yl)-3-fluorophenyl)methyl)azetidine-3-carboxylic acid] registered an EC50 of 4950 nM.

`O=C(O)C1CN(Cc2ccc(-c3nc4cc(Oc5ccccc5)ccc4o3)c(F)c2)C1` [Reference Compound 116, 1-((3-Fluoro-4-(5-phenoxybenzo[d]oxazol-2-yl)phenyl)methyl)azetidine-3-carboxylic acid] gave an EC50 of 12 nM.

For the molecule `O=C(O)C1CN(Cc2ccc(-c3nc4ccc(Cc5ccccc5)cc4s3)c(F)c2)C1` [Reference Compound 118, 1-((4-(6-Benzylbenzo[d]thiazol-2-yl)-3-fluorophenyl)methyl)azetidine-3-carboxylic acid], the half-maximal effective concentration (EC50) was determined as 149 nM.

Turning to `O=C(O)C1CN(Cc2cnc(-c3cc4cc(Cc5ccccc5)ccc4o3)nc2)C1` [Reference Compound 121, 1-((2-(5-Benzylbenzofuran-2-yl)pyrimidin-5-yl)methyl)azetidine-3-carboxylic acid], the response was half-maximal at 1320 nM (EC50).

`Cc1nc(-c2cc3cc(Cc4ccccc4)ccc3o2)ccc1CN1CC(C(=O)O)C1` [Reference Compound 122, 1-((6-(5-Benzylbenzofuran-2-yl)-2-methylpyridin-3-yl)methyl)azetidine-3-carboxylic acid] gave an EC50 of 420 nM.

`CC(c1ccc(-c2cc3cc(Cc4ccccc4)ccc3o2)c(F)c1)N1CC(C(=O)O)C1` (stereo not drawn) [Reference Compound 123, 1-(1-(4-(5-benzylbenzofuran-2-yl)-3-fluorophenyl)ethyl)azetidine-3-carboxylic acid] returned an EC50 of 313 nM.
